Results as given in ChEMBL document CHEMBL1132869, “The first synthesis of clausenamine-A and cytotoxic activities of three biscarbazole analogues against cancer cells” (2000).

Assays:
Details in all cases: Homo sapiens
[1] = system: MDA-MB-435; experiment: In vitro inhibitory activity against MDA-MB-435 breast cancer cell lines; type: functional
[2] = system: MCF7; experiment: In vitro inhibitory activity against MCF-7 breast cancer cell lines; type: functional
[3] = system: CAKI-1; experiment: In vitro inhibitory activity against CAKI-1 […] cancer cell lines; type: functional
[4] = system: RPMI-8226; experiment: In vitro inhibitory activity against […] cancer cell lines; type: functional
[5] = system: A498; experiment: In vitro inhibitory activity against A-498 […] cancer cell lines; type: functional
[6] = system: NCI-H23; experiment: In vitro inhibitory activity against NIC-H23 lung cancer cell lines
[7] = system: SF-295; experiment: In vitro inhibitory activity against SF-295 […] cancer cell lines; type: functional
[8] = system: MDA-N; experiment: In vitro inhibitory activity against MDA-N breast cancer cell lines; type: functional
[9] = system: HL-60; experiment: In vitro inhibitory activity against HL-60 cancer cell lines; type: functional
[10] = system: MOLT-4; experiment: In vitro inhibitory activity against MOLT-4 cancer cell lines; type: functional
[11] = system: K562; experiment: In vitro inhibitory activity against K-562 cancer cell lines; type: functional
[12] = system: HCT-15; experiment: In vitro inhibitory activity against HCT-15 colon cancer cell lines; type: functional
[13] = system: HT-29; experiment: In vitro inhibitory activity against HT-29 colon cancer cell lines; type: functional
[14] = system: OVCAR-5; experiment: In vitro inhibitory activity against OVCAR-5 ovarian cancer cell lines; type: functional
[15] = system: UO-31; experiment: In vitro inhibitory activity against UO-31 renal cancer cell lines; type: functional
[16] = system: SK-MEL-5; experiment: In vitro inhibitory activity against SK-MEL-5 melanoma cancer cell lines; type: functional
[17] = system: SR; experiment: In vitro inhibitory activity against SR cancer cell lines; type: functional

**Q.** Which results are given for `Cc1cc2c([nH]c3ccccc32)c(O)c1-c1c(C)cc2c([nH]c3ccccc32)c1O`?
**A.** GI50 [1]: 15 µM; GI50 [2]: 11.2 µM; GI50 [3]: 14.7 µM; GI50 [4]: 3.85 µM; GI50 [5]: 15.9 µM; GI50 [6]: 12.4 µM; GI50 [7]: 17.4 µM; GI50 [8]: 14.7 µM; GI50 [9]: 32.9 µM; GI50 [10]: 3.62 µM; GI50 [11]: 12.3 µM; GI50 [12]: 10.1 µM; GI50 [13]: 6.04 µM; GI50 [14]: 15 µM; GI50 [15]: 13 µM; GI50 [16]: 16.5 µM; GI50 [17]: 3.16 µM

**Q.** With `COc1cc(OC)c2[nH]c3c(O)c(-c4c(C)cc5c([nH]c6c(OC)cc(OC)cc65)c4O)c(C)cc3c2c1` as the compound, how does the GI50 [1] read?
**A.** The GI50 was 12 µM.

**Q.** What about the GI50 [2] of the same compound?
**A.** Its GI50 is 8.68 µM.

**Q.** And the GI50 [3]?
**A.** Its GI50 is 9.89 µM.

**Q.** And the GI50 [4]?
**A.** Its GI50 is 10.5 µM.

**Q.** What about the GI50 [5] of the same compound?
**A.** Its GI50 is 7.82 µM.

**Q.** What about the GI50 [6] of the same compound?
**A.** Its GI50 is 8.2 µM.

**Q.** What about the GI50 [7] of the same compound?
**A.** Its GI50 is 10.2 µM.

**Q.** What about the GI50 [8] of the same compound?
**A.** The GI50 was 8.83 µM.

**Q.** And the GI50 [9]?
**A.** The GI50 was 2.82 µM.

**Q.** What about the GI50 [10] of the same compound?
**A.** The GI50 was 8.59 µM.

**Q.** And the GI50 [11]?
**A.** The GI50 was 9.7 µM.

**Q.** And the GI50 [12]?
**A.** The GI50 was 8.28 µM.

**Q.** And the GI50 [13]?
**A.** Its GI50 is 8.03 µM.

**Q.** What about the GI50 [14] of the same compound?
**A.** The GI50 was 9.03 µM.

**Q.** And the GI50 [15]?
**A.** The GI50 was 6.84 µM.

**Q.** And the GI50 [16]?
**A.** Its GI50 is 8.38 µM.

**Q.** And the GI50 [17]?
**A.** The GI50 was 9.01 µM.

**Q.** What does the source list for `COc1ccc2[nH]c3c(O)c(-c4c(C)cc5c([nH]c6ccc(OC)cc65)c4O)c(C)cc3c2c1`?
**A.** GI50 [1]: 4.34 µM; GI50 [2]: 4.49 µM; GI50 [3]: 4.27 µM; GI50 [4]: 3.61 µM; GI50 [5]: 4.78 µM; GI50 [6]: 4.48 µM; GI50 [7]: 5.11 µM; GI50 [8]: 4.5 µM; GI50 [9]: 0.0321 µM; GI50 [10]: 3.23 µM; GI50 [11]: 4.04 µM; GI50 [12]: 4.2 µM; GI50 [13]: 3.71 µM; GI50 [14]: 3.82 µM; GI50 [15]: 3.78 µM; GI50 [16]: 4.34 µM; GI50 [17]: 3.97 µM
